In patent US20050197350A1, “Novel quinoline, tetrahydroquinazoline, and pyrimidine derivatives and methods of treatment related to the use thereof” (TAISHO PHARMACEUTICAL CO., LTD., priority 2003, published 2005):

system: MCH receptors; test: MCH receptor activity class (method not given); settings: class by percent of control at 10^-7 M or IC50

Question: How did the class turn out when `CN(C)c1nc(N[C@H]2CC[C@@H](CNCc3ccc4c(c3)OCO4)CC2)nc2c1CCCC2` [compound 1424] was run?
Answer: 3 (Class 3 The value of percent of control at 10^−7 M was more than 60% or the value of IC50 was more than 200 nM.)

Question: How did the class turn out when `CN(C)c1nc(N[C@H]2CC[C@@H](CNCc3ccsc3)CC2)nc2c1CCCC2` [compound 1425] was run?
Answer: 3 (Class 3 The value of percent of control at 10^−7 M was more than 60% or the value of IC50 was more than 200 nM.)

Question: For `Cc1cccc(CNC[C@H]2CC[C@@H](Nc3nc4c(c(N(C)C)n3)CCCC4)CC2)c1` [compound 1426], which class is on record?
Answer: 3 (Class 3 The value of percent of control at 10^−7 M was more than 60% or the value of IC50 was more than 200 nM.)

Question: How did the class turn out when `Cc1ccccc1CNC[C@H]1CC[C@@H](Nc2nc3c(c(N(C)C)n2)CCCC3)CC1` [compound 1427] was run?
Answer: 3 (Class 3 The value of percent of control at 10^−7 M was more than 60% or the value of IC50 was more than 200 nM.)

Question: How did the class turn out when `Cc1ccc(CNC[C@H]2CC[C@@H](Nc3nc4c(c(N(C)C)n3)CCCC4)CC2)cc1` [compound 1428] was run?
Answer: 3 (Class 3 The value of percent of control at 10^−7 M was more than 60% or the value of IC50 was more than 200 nM.)

Question: Which class does the source give for `CN(C)c1nc(N[C@H]2CC[C@@H](CNCc3cc(Cl)cc(Cl)c3)CC2)nc2c1CCCC2` [compound 1429] here?
Answer: 3 (Class 3 The value of percent of control at 10^−7 M was more than 60% or the value of IC50 was more than 200 nM.)

Question: Which class does the source give for `COc1cc(CNC[C@H]2CC[C@@H](Nc3nc4c(c(N(C)C)n3)CCCC4)CC2)cc2c1OCO2` [compound 1430] here?
Answer: 2 (Class 2: The value of percent of control at 10^−7 M was from 40% to 60% or the value of IC′50 was from 50 nM to 200 nM.)

Question: `COc1cc(CNC[C@H]2CC[C@@H](Nc3nc4c(c(N(C)C)n3)CCCC4)CC2)cc(Br)c1OC` [compound 1431] was tested. Which class did it give?
Answer: 3 (Class 3 The value of percent of control at 10^−7 M was more than 60% or the value of IC50 was more than 200 nM.)

Question: With `COc1ccc(CNC[C@H]2CC[C@@H](Nc3nc4c(c(N(C)C)n3)CCCC4)CC2)cc1C` [compound 1432] as the molecule, how does the class read?
Answer: 3 (Class 3 The value of percent of control at 10^−7 M was more than 60% or the value of IC50 was more than 200 nM.)

Question: For `COc1cc(Br)c(CNC[C@H]2CC[C@@H](Nc3nc4c(c(N(C)C)n3)CCCC4)CC2)cc1OC` [compound 1433], which class is on record?
Answer: 3 (Class 3 The value of percent of control at 10^−7 M was more than 60% or the value of IC50 was more than 200 nM.)

Question: Which class does the source give for `Cc1oc(-c2ccccc2)cc1CNC[C@H]1CC[C@@H](Nc2nc3c(c(N(C)C)n2)CCCC3)CC1` [compound 1434] here?
Answer: 3 (Class 3 The value of percent of control at 10^−7 M was more than 60% or the value of IC50 was more than 200 nM.)

Question: Which class does the source give for `COc1ccc(CNC[C@H]2CC[C@@H](Nc3nc4c(c(N(C)C)n3)CCCC4)CC2)cc1OC` [compound 1435] here?
Answer: 3 (Class 3 The value of percent of control at 10^−7 M was more than 60% or the value of IC50 was more than 200 nM.)

Question: For `Cc1cc(CNC[C@H]2CC[C@@H](Nc3nc4c(c(N(C)C)n3)CCCC4)CC2)ccc1O` [compound 1436], which class is on record?
Answer: 2 (Class 2: The value of percent of control at 10^−7 M was from 40% to 60% or the value of IC′50 was from 50 nM to 200 nM.)

Question: How did the class turn out when `COc1cc(C)c(CNC[C@H]2CC[C@@H](Nc3nc4c(c(N(C)C)n3)CCCC4)CC2)cc1C` [compound 1437] was run?
Answer: 2 (Class 2: The value of percent of control at 10^−7 M was from 40% to 60% or the value of IC′50 was from 50 nM to 200 nM.)

Question: How did the class turn out when `COc1cccc(CNC[C@H]2CC[C@@H](Nc3nc4c(c(N(C)C)n3)CCCC4)CC2)c1O` [compound 1438] was run?
Answer: 3 (Class 3 The value of percent of control at 10^−7 M was more than 60% or the value of IC50 was more than 200 nM.)

Question: `CN(C)c1nc(N[C@H]2CC[C@@H](CNCc3cc(C(F)(F)F)cc(Cl)c3F)CC2)nc2c1CCCC2` [compound 1439] was tested. Which class did it give?
Answer: 3 (Class 3 The value of percent of control at 10^−7 M was more than 60% or the value of IC50 was more than 200 nM.)

Question: With `CN(C)c1nc(N[C@H]2CC[C@@H](CNCc3cc(F)cc(C(F)(F)F)c3)CC2)nc2c1CCCC2` [compound 1440] as the molecule, how does the class read?
Answer: 3 (Class 3 The value of percent of control at 10^−7 M was more than 60% or the value of IC50 was more than 200 nM.)

Question: For `COc1cc(CNC[C@H]2CC[C@@H](Nc3nc4c(c(N(C)C)n3)CCCC4)CC2)cc(F)c1O` [compound 1441], which class is on record?
Answer: 2 (Class 2: The value of percent of control at 10^−7 M was from 40% to 60% or the value of IC′50 was from 50 nM to 200 nM.)

Question: Which class does the source give for `COc1cc(F)c(CNC[C@H]2CC[C@@H](Nc3nc4c(c(N(C)C)n3)CCCC4)CC2)cc1OC` [compound 1442] here?
Answer: 3 (Class 3 The value of percent of control at 10^−7 M was more than 60% or the value of IC50 was more than 200 nM.)

Question: How did the class turn out when `CCc1ccccc1CNC[C@H]1CC[C@@H](Nc2nc3c(c(N(C)C)n2)CCCC3)CC1` [compound 1443] was run?
Answer: 3 (Class 3 The value of percent of control at 10^−7 M was more than 60% or the value of IC50 was more than 200 nM.)

Question: Which class does the source give for `CN(C)c1nc(N[C@H]2CC[C@@H](CNCc3ccc(N(C)CCC#N)cc3)CC2)nc2c1CCCC2` [compound 1444] here?
Answer: 3 (Class 3 The value of percent of control at 10^−7 M was more than 60% or the value of IC50 was more than 200 nM.)

Question: Which class does the source give for `CN(C)c1nc(N[C@H]2CC[C@@H](CNCc3ccc(OCc4ccc(Br)cc4)cc3)CC2)nc2c1CCCC2` [compound 1445] here?
Answer: 3 (Class 3 The value of percent of control at 10^−7 M was more than 60% or the value of IC50 was more than 200 nM.)

Question: For `CCOc1c(Br)cc(Br)cc1CNC[C@H]1CC[C@@H](Nc2nc3c(c(N(C)C)n2)CCCC3)CC1` [compound 1446], which class is on record?
Answer: 3 (Class 3 The value of percent of control at 10^−7 M was more than 60% or the value of IC50 was more than 200 nM.)

Question: `CN(C)c1cc(N[C@H]2CC[C@@H](NCCc3ccc(Br)cc3)CC2)nc2ccccc12` [compound 1447] was tested. Which class did it give?
Answer: 3 (Class 3 The value of percent of control at 10^−7 M was more than 60% or the value of IC50 was more than 200 nM.)

Question: `CN(C)c1cc(N[C@H]2CC[C@@H](NCCOc3ccccc3Cl)CC2)nc2ccccc12` [compound 1449] was tested. Which class did it give?
Answer: 3 (Class 3 The value of percent of control at 10^−7 M was more than 60% or the value of IC50 was more than 200 nM.)

Question: `Cc1c(C)c(C)c(CNC2CCC(Nc3cc(N(C)C)c4ccccc4n3)CC2)c(C)c1C` (stereo not shown) [compound 1451] was tested. Which class did it give?
Answer: 3 (Class 3 The value of percent of control at 10^−7 M was more than 60% or the value of IC50 was more than 200 nM.)

Question: For `CCOc1cccc(CN[C@H]2CC[C@@H](Nc3cc(N(C)C)c4ccccc4n3)CC2)c1` [compound 1452], which class is on record?
Answer: 3 (Class 3 The value of percent of control at 10^−7 M was more than 60% or the value of IC50 was more than 200 nM.)

Question: How did the class turn out when `CN(C)c1cc(N[C@H]2CC[C@@H](NC[C@@H](COCc3ccccc3)OCc3ccccc3)CC2)nc2ccccc12` [compound 1453] was run?
Answer: 3 (Class 3 The value of percent of control at 10^−7 M was more than 60% or the value of IC50 was more than 200 nM.)

Question: With `COc1cc2ccccc2cc1CN[C@H]1CC[C@@H](Nc2cc(N(C)C)c3ccccc3n2)CC1` [compound 1454] as the molecule, how does the class read?
Answer: 3 (Class 3 The value of percent of control at 10^−7 M was more than 60% or the value of IC50 was more than 200 nM.)

Question: How did the class turn out when `CN(C)c1cc(N[C@H]2CC[C@@H](NCCN(CCC#N)c3ccccc3)CC2)nc2ccccc12` [compound 1455] was run?
Answer: 2 (Class 2: The value of percent of control at 10^−7 M was from 40% to 60% or the value of IC′50 was from 50 nM to 200 nM.)

Question: For `Cc1ccc(S(=O)(=O)N[C@H](CN[C@H]2CC[C@@H](Nc3cc(N(C)C)c4ccccc4n3)CC2)Cc2ccccc2)cc1` [compound 1456], which class is on record?
Answer: 3 (Class 3 The value of percent of control at 10^−7 M was more than 60% or the value of IC50 was more than 200 nM.)

Question: For `CN(C)c1cc(NC2CCC(NCC3CCCCC3C(O)c3ccccc3)CC2)nc2ccccc12` (stereo not shown) [compound 1457], which class is on record?
Answer: 3 (Class 3 The value of percent of control at 10^−7 M was more than 60% or the value of IC50 was more than 200 nM.)

Question: For `COc1cc(CCN[C@H]2CC[C@@H](Nc3cc(N(C)C)c4ccccc4n3)CC2)cc(OC)c1` [compound 1458], which class is on record?
Answer: 3 (Class 3 The value of percent of control at 10^−7 M was more than 60% or the value of IC50 was more than 200 nM.)

Question: Which class does the source give for `CN(C)c1cc(N[C@H]2CC[C@@H](NCCc3c(-c4ccccc4)[nH]c4ccccc34)CC2)nc2ccccc12` [compound 1459] here?
Answer: 2 (Class 2: The value of percent of control at 10^−7 M was from 40% to 60% or the value of IC′50 was from 50 nM to 200 nM.)

Question: How did the class turn out when `CN(C)c1cc(N[C@H]2CC[C@@H](NCC(c3ccc(Cl)cc3)c3ccc(Cl)cc3)CC2)nc2ccccc12` [compound 1460] was run?
Answer: 3 (Class 3 The value of percent of control at 10^−7 M was more than 60% or the value of IC50 was more than 200 nM.)

Question: Which class does the source give for `C[C@H](CN[C@H]1CC[C@@H](Nc2cc(N(C)C)c3ccccc3n2)CC1)c1cccc(C(O)c2ccccc2)c1` (stereo partly shown) [compound 1461] here?
Answer: 3 (Class 3 The value of percent of control at 10^−7 M was more than 60% or the value of IC50 was more than 200 nM.)

Question: With `CN(C)c1cc(N[C@H]2CC[C@@H](NCC3CN(C(c4ccccc4)c4ccccc4)C3)CC2)nc2ccccc12` [compound 1462] as the molecule, how does the class read?
Answer: 1 (Class 1: The value of percent of control at 10^−7 M was less than 40% or the value of IC50 was less than 50 nM.)

Question: Which class does the source give for `CN(C)c1cc(N[C@H]2CC[C@@H](CNCCc3ccc(Br)cc3)CC2)nc2ccccc12` [compound 1463] here?
Answer: 3 (Class 3 The value of percent of control at 10^−7 M was more than 60% or the value of IC50 was more than 200 nM.)

Question: `COc1ccc(CCCCNC[C@H]2CC[C@@H](Nc3cc(N(C)C)c4ccccc4n3)CC2)cc1` [compound 1464] was tested. Which class did it give?
Answer: 3 (Class 3 The value of percent of control at 10^−7 M was more than 60% or the value of IC50 was more than 200 nM.)

Question: Which class does the source give for `CN(C)c1cc(N[C@H]2CC[C@@H](CNCCCCCCc3ccccc3)CC2)nc2ccccc12` [compound 1465] here?
Answer: 3 (Class 3 The value of percent of control at 10^−7 M was more than 60% or the value of IC50 was more than 200 nM.)

Question: For `Cc1cc(C)c(CCNC[C@H]2CC[C@@H](Nc3cc(N(C)C)c4ccccc4n3)CC2)c(C)c1` [compound 1466], which class is on record?
Answer: 3 (Class 3 The value of percent of control at 10^−7 M was more than 60% or the value of IC50 was more than 200 nM.)

Question: With `CN(C)c1cc(N[C@H]2CC[C@@H](CNCCCCCCCCc3ccccc3)CC2)nc2ccccc12` [compound 1467] as the molecule, how does the class read?
Answer: 3 (Class 3 The value of percent of control at 10^−7 M was more than 60% or the value of IC50 was more than 200 nM.)

Question: With `CN(C)c1cc(N[C@H]2CC[C@@H](CNCCc3ccc(C(C)(C)C)cc3)CC2)nc2ccccc12` [compound 1468] as the molecule, how does the class read?
Answer: 3 (Class 3 The value of percent of control at 10^−7 M was more than 60% or the value of IC50 was more than 200 nM.)
